The values that follow come from patent US20150164910A1, “ANTIVIRAL COMPOUNDS AND METHODS OF USE” (The Regents of the University of Califonia, priority 2012, published 2015).

In one test the test system is CVB3-H3. In words: Plaque reduction assay, CVB3-H3 in HeLa-RW cells. Conditions: compound added 30 min before infection, CVB3-H3 MOI 1, HeLa-RW, 6 hours; log10(titer with DMSO only/titer with inhibitor). It is filed as cell-based, coxsackievirus B3.
The test system of test [1] is eGFP-expressing recombinant CVB3. It is filed as cell-based, coxsackievirus B3. Conditions: for Inhibition of infected cells: eGFP-CVB3 m.o.i=1, compound added at time of infection, 6 hr post infection, 1-(% eGFP+ cells with compound/% with DMSO only).

Consider `Cc1ccc2nc(N3CCN(Cc4nnnn4Cc4ccccc4)CC3)c(C#N)cc2c1` [Compound 36, 2-{4-[(1-Benzyl-1H-tetrazol-5-yl)methyl]-1-piperazinyl}-6-methyl-3-quinoline-carbonitnle], for which the “Log10 reduction of virus titer” value in the test with CVB3-H3 was determined as 1.0. Besides, the “Inhibition of infected cells” value in test [1] was 79.7%.
As to `CCN(CC)CCNC1CCCc2c1[nH]c1ccc(C)cc21.Cl` (stereo not shown) [Compound 66, N,N-Diethyl-2-[(6-methyl-2,3,4,9-tetrahydro-1H-carbazol-1-yl)amino] ethanaminium chloride], the “Log10 reduction of virus titer” value in the test on CVB3-H3 came to 4.4. Besides, the “Inhibition of infected cells” value in test [1] worked out at 99.6%.
Taken in the same sequence, the figures for `Cc1cc(F)ccc1NC(=O)c1cc(-c2cccs2)nc2c1cnn2C(C)C` [Compound 4, N-(4-Fluoro-2-methylphenyl)-1-isopropyl-6-(2-thienyl)-1H-pyrazolo[3,4-b] pyridine-4-carboxamide] were 4.5 and 100%.
For the compound `O=C(N/N=C1/c2ccccc2-c2nc3ccccc3nc21)c1cccnc1` [Compound 51, N′-[(11Z)-11H-Indeno[1,2-b]quinoxalin-11-ylidene] nicotinohydrazide], the “Log10 reduction of virus titer” value with CVB3-H3 was determined as 0.1. In test [1], the “Inhibition of infected cells” value is given as 1.6%.
Taken in the same sequence, the figures for `COc1ccc(/N=c2\oc3ccccc3cc2C(=O)NCC2CCCO2)cc1` (stereo not shown) [Compound 62, (2Z)-2-[(4-Methoxyphenyl)imino]-N-(tetrahydro-2-furanylmethyl)-2H-chromene-3-carboxamide] were 1.5 and 90.4%.
Taken in the same sequence, the figures for `CCS(=O)(=O)c1ccc(NC(=O)c2cc(-c3ccccc3)nc3ccccc23)cc1` [Compound 27, N-[4-(Ethylsulfonyl)phenyl]-2-phenyl-4-quinoline-carboxamide] were 3.4 and 89.6%.
For the compound `Cc1ccc2cc(CN(Cc3ccc(F)cc3)C(=O)c3cccs3)c(=O)[nH]c2c1C` [Compound 37, N-[(7,8-Dimethyl-2-oxo-1,2-dihydro-3-quinolinyl)methyl]-N-(4-fluorobenzyl)-2-thiophene-carboxamide], the “Log10 reduction of virus titer” value with CVB3-H3 came to 4.2. The “Inhibition of infected cells” value in test [1] amounted to 99.7%.
For the compound `CCC(C)(C)Nc1c(-c2ccc(OC)c(CN3CCOCC3)c2)nc2cnccn12` [Compound 60, 2-[4-Methoxy-3-(4-morpholinylmethyl)phenyl]-N-(2-methyl-2-butanyl) imidazo[1,2-a]pyrazin-3-amine], the “Log10 reduction of virus titer” value in the test with CVB3-H3 was 1.8. Moreover, in test [1], the “Inhibition of infected cells” value was 100%.
On to `Cc1nc(-c2cccc(NS(=O)(=O)c3ccc4c(c3)CCC(=O)N4)c2)cs1` [Compound 38, N-[3-(2-Methyl-1,3-thiazol-4-yl)phenyl]-2-oxo-1,2,3,4-tetrahydro-6-quinoline-sulfonamide], for which the “Log10 reduction of virus titer” value in the test with CVB3-H3 is 0.9. In addition, the “Inhibition of infected cells” value in test [1] is recorded as 59.1%.
For the compound `CS(=O)(=O)c1ccc(NC(=O)c2cc(-c3ccc(F)cc3)nc3ccccc23)cc1` [Compound 28, 2-(4-Fluorophenyl)-N-[4-(methylsulfonyl)phenyl]-4-quinolinecarboxamide], in the test on CVB3-H3, the “Log10 reduction of virus titer” value stood at 4.5. The “Inhibition of infected cells” value in test [1] stood at 99.6%.
Taken in the same sequence, the figures for `COc1ccc2nc(C)n3c4ccccc4c(NC(C)=O)c3c2c1` [Compound 49, N-(2-Methoxy-6-methylindolo[1,2-c]quinazolin-12-yl)acetamide] were 1.0 and 17.2%.
Regarding `CCCSc1nc2ccccc2c(=O)n1Cc1ccccc1` [Compound 47, 3-Benzyl-2-(propylsulfanyl)-4(3H)-quinazolinone], the “Log10 reduction of virus titer” value in the test with CVB3-H3 is reported as 4.1. Further, in test [1], the “Inhibition of infected cells” value amounted to 100%.
Regarding `C#CCSc1nc2ccccc2c(=O)n1Cc1ccccc1` [Compound 48, 3-Benzyl-2-(2-propyn-1-ylsulfanyl)-4(3H)-quinazolinone], the “Log10 reduction of virus titer” value in the test on CVB3-H3 is 4.5. The “Inhibition of infected cells” value in test [1] stood at 100%.
As for `Cn1ccc(NC(=O)c2cc(-c3cccs3)nc3ccccc23)n1` [Compound 32, N-(1-Methyl-1H-pyrazol-3-yl)-2-(2-thienyl)-4-quinoline-carboxamide], the “Log10 reduction of virus titer” value in the test with CVB3-H3 came out at 4.0. Moreover, the “Inhibition of infected cells” value in test [1] was 100%.
Taken in the same sequence, the figures for `CC(C)c1cc(C(=O)Nc2ccccc2N2CCN(C)CC2)c2cnn(C(C)C)c2n1` [Compound 15, 1,6-Diisopropyl-N-[2-(4-methyl-1-piperazinyl)phenyl)-1H-pyrazolo[3,4-b]pyridine-4-carboxamide] were 2.4 and 100%.
Take `O=C(CCCc1nc(-c2ccccc2)no1)N1CCN(C2CCCCC2)C(=O)C1` [Compound 69, 1-Cyclohexyl-4-[4-(3-phenyl-1,2,4-oxadiazol-5-yl)butanoyl]-2-piperazinone]: the “Log10 reduction of virus titer” value in the test on CVB3-H3 amounted to 2.0. The “Inhibition of infected cells” value in test [1] was 96.5%.
Regarding `O=C(O)c1cccc(NS(=O)(=O)c2ccc(-c3ccccc3)cc2)c1` [Compound 56, 3-[(4-Biphenylylsulfonyl)amino] benzoic acid], the “Log10 reduction of virus titer” value in the test with CVB3-H3 is on record as 0.3. Moreover, in test [1], the “Inhibition of infected cells” value was 85.4%.
For `CC(C)n1ncc2c(C(=O)Nc3cccc(S(C)(=O)=O)c3)cc(-c3cccs3)nc21` [Compound 10, 1-lsopropyl-N-[3-(methylsulfonyl)phenyl]-6-(2-thienyl)-1H-pyrazolo [3,4-b]pyridine-4-carboxamide], in the test on CVB3-H3, the “Log10 reduction of virus titer” value is given as 4.4. For the same compound, the “Inhibition of infected cells” value in test [1] was 100%.
Regarding `OC(c1ccccc1)c1nc2ccccc2n1-c1ccccc1` (stereo not shown) [Compound 41, Phenyl(1-phenyl-1H-benzimidazol-2-yl)methanol], the “Log10 reduction of virus titer” value in the test with CVB3-H3 came out at 4.1. Further, the “Inhibition of infected cells” value in test [1] was found to be 100%.
Taken in the same sequence, the figures for `CC(C)n1ncc2c(C(=O)Nc3ccc(F)cc3Cl)cc(-c3cccs3)nc21` [Compound 6, N-(2-Chloro-4-fluorophenyl)-1-isopropyl-6-(2-thienyl)-1H-pyrazolo[3,4-b] pyridine-4-carboxamide] were 4.3 and 99.5%.
Taken in the same sequence, the figures for `c1ccc2[nH]c(CN3CCCC3)nc2c1` [Compound 40, 2-(1-Pyrrolidinylmethyl)-1H-benzimidazole] were 4.0 and 100%.
Taken in the same sequence, the figures for `COc1ccc(-c2nc3cnccn3c2NCc2ccc(C)cc2)cc1CO` [Compound 59, (2-Methoxy-5-{3-[(4-methylbenzyl)amino]imidazo[1,2-a]pyrazin-2-yl}phenyl)methanol] were 1.3 and 75.2%.
Take `COc1ccc(NC(=O)c2nn(Cc3ccccc3)c(=O)c3ccccc23)cn1` [Compound 64, 3-Benzyl-N-(6-methoxy-3-pyridinyl)-4-oxo-3,4-dihydro-1-phthalazine-carboxamide]: in the test with CVB3-H3, the “Log10 reduction of virus titer” value amounted to 4.2. The “Inhibition of infected cells” value in test [1] came to 100%.
Taken in the same sequence, the figures for `COc1ccc(NC(=O)c2cc(-c3cccs3)nc3c2cnn3C(C)C)cc1` [Compound 7, 1-Isopropyl-N-(4-methoxyphenyl)-6-(2-thienyl)-1H-pyrazolo [3,4-b]pyridine-4-carboxamide] were 4.3 and 99.5%.
As for `O=C(c1ccco1)N(Cc1ccccc1)Cc1ccccn1` [Compound 58, N-Benzyl-N-(2-pyridinylmethyl)-2-furamide], the “Log10 reduction of virus titer” value in the test with CVB3-H3 is 2.4. Also, the “Inhibition of infected cells” value in test [1] worked out at 91.7%.
Taken in the same sequence, the figures for `CC/C(C)=N\NC(=O)c1cc(-c2cccs2)nc2ccccc12` [Compound 24, N′-[(2Z)-2-Butanylidene]-2-(2-thienyl)-4-quinoline-carbohydrazide] were 4.0 and 100%.
Take `CC(C)n1ncc2c(C(=O)Nc3cccc(-c4nnco4)c3)cc(-c3ccccc3)nc21` [Compound 17, 1-Isopropyl-N-[3-(1,3,4-oxadiazol-2-yl)phenyl]-6-phenyl-1H-pyrazolo[3,4-b]pyridine-4-carboxamide]: the “Log10 reduction of virus titer” value in the test on CVB3-H3 was 4.3. In test [1], the “Inhibition of infected cells” value stood at 99.6%.
On to `CCn1ncc2c(C(=O)Nc3ccc(C)c(S(N)(=O)=O)c3)cc(-c3cccs3)nc21` [Compound 19, 1-Ethyl-N-(4-methyl-3-sulfamoylphenyl)-6-(2-thienyl)-1H-pyrazolo[3,4-b] pyridine-4-carboxamide], for which the “Log10 reduction of virus titer” value in the test on CVB3-H3 came to 4.3. In addition, the “Inhibition of infected cells” value in test [1] came out at 100%.
`Cc1ccc(F)cc1NC(=O)c1cc(-c2cccs2)nc2c1cnn2C(C)C` [Compound 2, N-(5-Fluoro-2-methylphenyl)-1-isopropyl-6-(2-thienyl)-1H-pyrazolo[3,4-b] pyridine-4-carboxamide]: the “Log10 reduction of virus titer” value with CVB3-H3 amounted to 4.4. The “Inhibition of infected cells” value in test [1] is 99.6%.
For “1-Isopropyl- N,6-diphenyl-1H- pyrazolo[3,4-b] pyridine- 4-carboxamide [Compound 16]”, in the test with CVB3-H3, the “Log10 reduction of virus titer” value is 4.5. For the same compound, the “% of eGFP + cells, 0 Hr” value in test [1] (compound added 0 hr post infection at its peak activity concentration, read 6 hr post infection, DMSO 26.0) was found to be 0.0%. The “% of eGFP + cells, 1 Hr” value in test [1] (compound added 1 hr post infection at its peak activity concentration, read 6 hr post infection, DMSO 23.7) came to 0.1%. Further, the “% of eGFP + cells, 2 Hr” value in test [1] (compound added 2 hr post infection at its peak activity concentration, read 6 hr post infection, DMSO 24.8) came to 0.0%. Also, the “Inhibition of infected cells” value in test [1] is 100%.
Regarding `CCCCOc1cc(C(=O)NCCN(CC)CC)c2ccccc2n1` [Compound 35, 2-Butoxy-N-[2-(diethylamino)ethyl]-4-quinoline-carboxamide, reference compound], in test [1], the “Inhibition of infected cells” value was 100%.
